Assay [1] deals with GlyT2. To be noted: cited from earlier work.
For assay [2], the target named is T1, GlyRα1/GlyT2 (Homo sapiens, UniProt Q9Y345).
T1 construct: expressed in transfected cells; host or cells: Xenopus laevis oocytes (cRNA co-injection)
T1 sequence (Q9Y345 1-797): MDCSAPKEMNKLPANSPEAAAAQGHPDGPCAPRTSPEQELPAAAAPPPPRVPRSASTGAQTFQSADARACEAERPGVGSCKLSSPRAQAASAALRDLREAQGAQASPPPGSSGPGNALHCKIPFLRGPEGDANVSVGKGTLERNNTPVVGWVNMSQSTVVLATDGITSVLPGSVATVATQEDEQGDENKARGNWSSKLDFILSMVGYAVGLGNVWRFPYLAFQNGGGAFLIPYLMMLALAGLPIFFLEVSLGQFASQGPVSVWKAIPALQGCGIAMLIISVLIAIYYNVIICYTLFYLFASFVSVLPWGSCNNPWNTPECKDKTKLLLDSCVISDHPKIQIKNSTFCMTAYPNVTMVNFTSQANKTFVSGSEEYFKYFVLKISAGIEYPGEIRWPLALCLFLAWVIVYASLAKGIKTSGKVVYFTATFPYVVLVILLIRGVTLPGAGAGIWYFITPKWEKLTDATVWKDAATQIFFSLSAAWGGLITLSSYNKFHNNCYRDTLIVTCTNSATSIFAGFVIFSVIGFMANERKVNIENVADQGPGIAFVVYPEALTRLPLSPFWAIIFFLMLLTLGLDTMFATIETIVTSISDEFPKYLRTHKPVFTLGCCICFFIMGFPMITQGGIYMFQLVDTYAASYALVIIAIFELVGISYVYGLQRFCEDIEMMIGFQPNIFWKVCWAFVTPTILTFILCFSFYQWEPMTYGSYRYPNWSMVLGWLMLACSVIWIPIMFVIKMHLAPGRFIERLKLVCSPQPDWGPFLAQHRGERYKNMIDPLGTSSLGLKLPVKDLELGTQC
The experiment in a line: Two-electrode voltage clamp, oocytes co-expressing GlyRα1/GlyT2. In kind it is cell-based. To be noted: 1 µM inhibitor; fast-flow. An excerpt: Human GlyT1b and GlyT2a WT cDNA were subcloned into the plasmid oocyte transcription vector (pOTV) and human GlyRα1, GlyRα3 and GlyRβ into pGEMHE. GlyR cDNA pGEMHE vectors were provided by Mary Collins at the University of Sydney (Sydney, Australia). Single point mutations were introduced into GlyRα1 using the Q5 site-directed mutagenesis kit (New England Biolabs (Genesearch), Arundel, Australia) with oligonucleotide primers (Merck, Sydney, Australia) containing the desired mutations. The amplified cDNA/pOTV or cDNA/pGEMHE product was then transformed in E. coli cells, and subsequently purified using the PureLink Quick Plasmid Miniprep Kit (Invitrogen by Life Technologies, Löhne, Germany), and sequenced by the Australian Genome Research Facility (Sydney, Australia). The purified plasmid DNA was linearised via the restriction enzyme, SpeI (New England Biolabs (Genesearch), Arundel, Australia) for GlyT1b and GlyT2a (henceforth referred to as GlyT1 and GlyT2 respectively) and NheI (New England Biolabs (Genesearch)) for GlyRα1, GlyRα3 and GlyRβ. Complementary RNAs were synthesised using the mMESAGE mMACHINE T7 kit (Ambion, Austin, TX, USA).
All work involving the use of animals was performed in accordance with the Australian Code of Practice for the Care and Use of Animals for Scientific Purposes and approved by the University of Sydney Animal Ethics Committee (Approval numbers 2016/970 and 2020/1704). […] The oocytes were then stored in frog Ringer’s solution (96 mM NaCl, 2 mM KCl, 1 mM MgCl2, 1.8 mM CaCl2, 5 mM HEPES, pH 7.5) which was supplemented with 2.5 mM sodium pyruvate, 0.5 mM theophylline, 50 μg/mL gentamicin and […] tetracycline. The oocytes were stored at 18 °C for 3–5 days, until transporter and receptor expression were adequate for measurement using the two-electrode voltage clamp technique.
GlyT1, GlyT2, GlyRα1, GlyRα3, GlyRα1β and GlyRα3β are electrogenic, allowing activation to be measured via the two-electrode voltage clamp technique. Oocytes were voltage clamped at −60 mV, and whole-cell currents generated by the substrate were recorded with a Geneclamp 500 amplifier (Axon Instruments, Foster City, CA, USA), digitised by a Powerlab 2/20 chart recorder (ADInstruments, Sydney, Australia). LabChart version 8 software (ADInstruments, Sydney, Australia) was used to visualise and process current traces. Recordings were performed in frog Ringer’s solution, except for low Na^+ experiments where Na^+ was replaced with choline. Oocytes were placed in an oval-shaped bath with a volume of 0.3 mL, with laminar flow around the oocyte at a rate of 12 mL min^−1 under gravity feed.
Varying concentrations of substrate or agonist were applied to cells in ND96. […]
On the technique in general: In two-electrode clamp one electrode senses voltage and the other passes current.

For orientation: IC50 means the concentration at which inhibition is half-maximal.

As to `COc1cc(C(=O)NCC2(N(C)C)CCCC2)cc(OC)c1OCc1ccccc1` [ORG-25543], in assay [1], the IC50 is 16 nM. In addition, the “nH of glycine dose-response in the presence of GlyT inhibitor” value in assay [2] is given as 2.6 ± 0.4 ns.

The values are drawn from paper PMC7760315 (Biomolecules, 2020).
